In patent US20060083790A1, “Combination of an ibat inhibitor and a metal salt for the treatment of diarrhoea” (priority 2002, published 2006):
Read-outs that look alike come from different tables or passages of the source.

Experiments:
[1] = 200 mg crystalline calcium phosphate in 10 ml, initial GDC 1-15 mM, pH 7.4, all samples
Method: A stock solution of sodium glycodeoxycholate (GDC) was prepared by dissolving the following substances in deionised water:
(§1) The pH was adjusted to 7.4 with sodium hydroxide.
(§2) A similar buffer solution with the same content, except for the bile acid was also prepared.
The resulting initial GDC concentrations in the samples were 1-15 mM. The samples were equilibrated for several hours. The solid material in the samples were removed by centrifugation and/or filtration, and the obtained clear supernatants were analysed with respect to GDC content. The analyses were carried out by HPLC.

[2] = 200 mg crystalline calcium phosphate in 10 ml, initial DC 1-20 mM, pH 7.4, all samples
Method: A stock solution of sodium deoxycholate (DC) was prepared by dissolving the following substances in deionised water:
as §1, §2
The resulting initial DC concentrations in the samples were 1-20 mM. The samples were equilibrated for several hours. The solid material in the samples were removed by centrifugation and/or filtration, and the obtained clear supernatants were analysed with respect to DC content. The analyses were carried out by HPLC.

[3] = for Absorbance (taurocholate concentration after the enzymatic colour reaction): pH 6.5, supernatant
Method: A solution simulating the human intestinal fluid in the fasted state, FaSSIF, was prepared by dissolving the following components in deionised water.
The pH was adjusted to 6.5.
A separate solution of calcium chloride was prepared by dissolving 149.2 mM of the salt in deionised water.
5.0 ml of FaSSIF was added to each of 7 glass vials. A known volume, varying from 0 to 0.5 ml, of the calcium chloride solution was added to each vial. Each sample was inspected visually immediately after the calcium chloride addition.
A volume of 1.0 ml was withdrawn from each sample and centrifuged for 20 mins at 14 000 rpm. The clear supernatant of each sample was collected and analysed with respect to bile acid content. The analyses were carried out using a bile acid analysis kit which employs an enzymatic colour reaction. The concentration of bile acid is proportional to the colour intensity which is determined by spectrophotometry.

[4] = for Concentration of bile acids: pH 7.4, supernatant
Method: A solution containing a mixture of bile acids was prepared by dissolving the following components in deionised water:
The pH was adjusted to 7.4.
A calcium chloride solution was prepared by dissolving the following components in deionised water:
2.0 ml of the bile acid solution was added to each of 6 glass vials. A known volume, varying from 0 to 300 μl, of the calcium chloride solution was added to each vial. Each sample was inspected visually immediately after the calcium chloride addition. 1.5 ml of each sample was transferred into a centrifugation tube and centrifuged for 20 mins at 14 000 rpm. The clear supernatant was collected and analysed with respect to bile acid content. The analyses were carried out using a bile acid analysis kit which employs an enzymatic colour reaction. The concentration of bile acid is proportional to the colour intensity which is determined by spectrophotometry.

[5] = dog
Method: The IBAT inhibitor is dosed orally at a dose that will cause diarrhoea, for example 25-50 μmol/kg. The metal salt is then introduced into the colon, through the fistulae, to see if the diarrhoea can be prevented. The dose of the metal salt varies and can be determined after analysing the bile acid concentration in faeces from dogs having been exposed to the same dose of the IBAT inhibitor.
A solution of an BAT inhibitor was administered directly into the stomach of the dog via an orogastric tube (t=0 hours). The dog was fed 30 minutes after the administration of the IBAT inhibitor (t=0.5 hours).
Faeces was collected during the first 8 hours after administration, and the time for each bowel movement was recorded. Each faeces sample was homogenized with a high-shear mixer and, subsequently, centrifuged in order to separate the solid material from the faecal water phase. The faecal water was collected and analysed with respect to bile acid content. The amount of bile acid in the faecal water was related to the amount of solid material in each faeces sample.

[6] = with increasing added amount of calcium chloride

Compound	GDC concentration in supernatant (HPLC) [1]	DC concentration in supernatant (HPLC) [2]	Absorbance (taurocholate concentration after the enzymatic colour reaction) ([3]; 7.5 μmol calcium chloride added to 5.0 ml FaSSIF)	Absorbance (taurocholate concentration after the enzymatic colour reaction) ([3]; 14.9 μmol calcium chloride added to 5.0 ml FaSSIF)	Absorbance (taurocholate concentration after the enzymatic colour reaction) ([3]; 22.4 μmol calcium chloride added to 5.0 ml FaSSIF)	Absorbance (taurocholate concentration after the enzymatic colour reaction) ([3]; 29.8 μmol calcium chloride added to 5.0 ml FaSSIF)	Absorbance (taurocholate concentration after the enzymatic colour reaction) ([3]; 44.8 μmol calcium chloride added to 5.0 ml FaSSIF)	Absorbance (taurocholate concentration after the enzymatic colour reaction) ([3]; 74.6 μmol calcium chloride added to 5.0 ml FaSSIF)	Visual inspection immediately after calcium chloride addition ([3]; FaSSIF, all samples with calcium chloride)	Concentration of taurocholate in the aqueous solution, trend [3, 6]	Concentration of bile acids ([4]; 3.0 μmol calcium chloride added to 2.0 ml bile acid solution)	Concentration of bile acids ([4]; 6.0 μmol calcium chloride added to 2.0 ml bile acid solution)	Concentration of bile acids ([4]; 12.0 μmol calcium chloride added to 2.0 ml bile acid solution)	Concentration of bile acids ([4]; 30.0 μmol calcium chloride added to 2.0 ml bile acid solution)	Concentration of bile acids ([4]; 60.1 μmol calcium chloride added to 2.0 ml bile acid solution)	Visual inspection immediately after calcium chloride addition ([4]; bile acid mixture, all samples with calcium chloride)	Concentration of bile acids in the aqueous solution, trend [4, 6]	Bile acid concentration in faecal water ([5]; IBAT inhibitor into the stomach at t=0, intracolonic calcium chloride at t=1 hour, as long as calcium chloride is present in the colon)	Time after which most of the calcium chloride has been removed from the colon ([5]; intracolonic administration, removed by absorption or by bowel movements)
calcium phosphate	reduced by the presence of calcium phosphate in all samples	reduced by the presence of calcium phosphate in all samples																	
[Ca+2].[Cl-].[Cl-] [calcium chloride]			0.0933	0.0890	0.0843	0.0783	0.0735	0.0718	A precipitate was formed in all samples	decreased with increasing added amount of calcium chloride	2.2 mM	2.1 mM	1.9 mM	0.8 mM	0.7 mM	a precipitate was formed in all samples	decreased with increasing added amount of calcium chloride	relatively constant	approximately 3.5 hours
